Patent US10669268B2, “Bicyclic derivatives” (Hoffmann-La Roche Inc., priority 2012, dated 2020)

target: ATX (human His-tagged) (Homo sapiens (Human), UniProt Q13822); test: Human ATX enzyme inhibition assay (fluorescence quenching, MR121 substrate); type: biochemical; conditions: 30 nM ATX, 1 μM MR121 substrate, 30° C., pH 8.0
How it was run: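 Tris-HCl buffer at pH 8.0 contained 140 mM NaCl, 5 mM KCl, 1 mM each CaCl2 and MgCl2, and 0.01% Triton X-100. The MR121 substrate (1 μM final) was incubated with enzyme for 15 min at 30 °C, and activity was read by fluorescence quenching.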

IC50	SMILES
2 nM	CCOc1nc(C(=O)N2C[C@@H]3CN(C(=O)[C@@H]4CCc5[nH]nnc5C4)C[C@H]3C2)cc2ccccc12 [Example 19.35, [(3aS,6aS)-5-[(5R)-4,5,6,7-tetrahydro-1H-benzotriazole-5-carbonyl]-1,3,3a,4,6,6a-hexahydropyrrolo[3,4-c]pyrrol-2-yl]-(1-ethoxyisoquinolin-3-yl)methanone]
4 nM	O=C(CCc1cc(Cl)cc(C(F)(F)F)c1)N1CC[C@@H]2CN(C(=O)c3ccc4[nH]nnc4c3)C[C@@H]2CC1 [Example 17.17, 1-((3aR,8aS)-2-(1H-benzo[d][1,2,3]triazole-5-carbonyl)octahydropyrrolo[3,4-d]azepin-6(7H)-yl)-3-(3-chloro-5-(trifluoromethyl)phenyl)propan-1-one]
12 nM	O=C(COc1ccc(OC(F)(F)F)cc1Cl)N1C[C@@H]2CN(C(=O)c3ccc4[nH]nnc4c3)C[C@H]2C1 [Example 15.91]
3 nM	O=C(/C=C/c1ccc(OC(F)F)cc1)N1C[C@@H]2CN(C(=O)c3ccc4[nH]nnc4c3)C[C@H]2C1 [Example 15.36, (E)-1-((3aR,6aR)-5-(1H-benzo[d][1,2,3]triazole-5-carbonyl)hexahydro-pyrrolo[3,4-c]pyrrol-2(1H)-yl)-3-(4-(difluoromethoxy)phenyl)-prop-2-en-1-one]
8 nM	O=C(/C=C/c1ccccc1C1CC1)N1CC[C@@H]2CN(C(=O)c3ccc4[nH]nnc4c3)C[C@@H]2CC1 [Example 1.29, (E)-1-((3aR,8aS)-2-(1H-benzo[d][1,2,3]triazole-5-carbonyl)octahydropyrrolo[3,4-d]azepin-6(7H)-yl)-3-(2-cyclopropylphenyl)prop-2-en-1-one]
10400 nM	O=C(OCc1cc(Cl)cc(Cl)c1)N1C[C@H]2CN(Cc3ccc4[nH]cnc4c3)C[C@H]2C1 [Example 6, (3aR,6aS)-3,5-Dichlorobenzyl 5-((1H-benzo[d]imidazol-5-yl)methyl)hexahydropyrrolo[3,4-c]pyrrole-2(1H)-carboxylate]
5 nM	O=C(OCc1cc(Cl)cc(Cl)c1)N1C[C@@H]2CN(C(=O)c3ccc4[nH]c(=O)oc4c3)C[C@@H]2C1 [Example 2.01, (3aR,6aS)-3,5-dichlorobenzyl 5-(2-oxo-2,3-dihydrobenzo[d]oxazole-6-carbonyl)hexahydropyrrolo[3,4-c]pyrrole-2(1H)-carboxylate]
114 nM	O=C(CCc1ccc(OC(F)(F)F)cc1)N1C[C@@H]2CN(C(=O)c3ccc4[nH]nnc4c3)C[C@@H]2C1 [Example 15.13]
6 nM	N#Cc1cc(Cl)cc(/C=C/C(=O)N2C[C@@H]3CN(C(=O)c4ccc5[nH]nnc5c4)C[C@H]3C2)c1 [Example 15.50]
51 nM	O=C(OCc1cc(F)cc(C(F)(F)F)c1)N1C[C@@H]2CN(C(=O)c3ccc4[nH]nnc4c3)C[C@@H]2C1 [Example 4.26, (3aS,6aR)-5-(1H-benzotriazole-5-carbonyl)-hexahydro-pyrrolo[3,4-c]pyrrole-2-carboxylic acid 3-fluoro-5-trifluoromethyl-benzyl ester]
13 nM	O=C(OCc1ccc(OC(F)(F)F)cc1)N1CC[C@@H]2CN(C(=O)c3ccc4[nH]nnc4c3)C[C@H]2C1 (relative stereo) [Example 1.24, trans-2-(1H-benzotriazole-5-carbonyl)-octahydro-pyrrolo[3,4-c]pyridine-5-carboxylic acid 4-trifluoromethoxy-benzyl ester]
36 nM	O=C(NCc1cnn[nH]1)[C@H]1C[C@@H]2CN(C(=O)OCc3cc(Cl)cc(Cl)c3)C[C@@H]2C1 [Example 4.33, (3aR,5s,6aS)-5-[(3H-[1,2,3]triazol-4-ylmethyl)-carbamoyl]-hexahydro-cyclopenta[c]pyrrole-2-carboxylic acid 3,5-dichloro-benzyl ester]
6 nM	O=C(OCc1ccc(OCC(F)(F)F)cc1)N1C[C@@H]2CN(C(=O)c3ccc4[nH]nnc4c3)C[C@H]2C1 [Example 4.44, (3aS,6aS)-5-(1H-benzotriazole-5-carbonyl)-hexahydro-pyrrolo[3,4-c]pyrrole-2-carboxylic acid 4-(2,2,2-trifluoro-ethoxy)-benzyl ester]
305 nM	O=C(c1ccc2[nH]nnc2c1)N1C[C@H]2CN(C(=O)N3CCN(c4ccc(Cl)cc4)CC3)C[C@@H]2C1 [Example 20.01, (1H-benzotriazol-5-yl)-{(3aS,6aS)-5-[4-(4-chloro-phenyl)-piperazine-1-carbonyl]-hexahydro-pyrrolo[3,4-c]pyrrol-2-yl}-methanone]
108 nM	O=C(OCc1cc(Cl)cc(Cl)c1)N1C[C@@H]2CN(C(=O)N3CCc4[nH]nnc4C3)C[C@@H]2C1 [Example 8, (3aR,6aS)-3,5-dichlorobenzyl 5-(4,5,6,7-tetrahydro-1H-[1,2,3]triazolo[4,5-c]pyridine-5-carbonyl)hexahydropyrrolo[3,4-c]pyrrole-2(1H)-carboxylate]
42 nM	COc1ccc(/C=C/C(=O)N2CC[C@@H]3CN(C(=O)c4ccc5[nH]nnc5c4)C[C@@H]3CC2)cc1 [Example 15.09]
22 nM	O=C(OCc1cc(Cl)cc(Cl)c1)N1C[C@@H]2CN(S(=O)(=O)c3ccc4[nH]c(=O)oc4c3)C[C@@H]2C1 [Example 7, (3aR,6aS)-3,5-Dichlorobenzyl 5-(2-oxo-2,3-dihydrobenzo[d]oxazol-6-ylsulfonyl)hexahydropyrrolo[3,4-c]pyrrole-2(1H)-carboxylate]
10 nM	O=C(c1ccc2[nH]nnc2c1)N1C[C@H]2CN(C(=O)[C@H]3CC[C@H](c4ccc(Cl)cc4)CC3)C[C@@H]2C1 [Example 19.17, [(3aR,6aR)-5-(1H-benzotriazole-5-carbonyl)-hexahydro-pyrrolo[3,4-c]pyrrol-2-yl]-[trans-4-(4-chloro-phenyl)-cyclohexyl]-methanone]
3 nM	N#Cc1ccc(/C=C/C(=O)N2CC[C@@H]3CN(C(=O)c4ccc5[nH]nnc5c4)C[C@@H]3CC2)c(F)c1 [Example 15.34]
6 nM	Cc1cc(OCC(=O)N2C[C@@H]3CN(C(=O)[C@@H]4CCc5[nH]nnc5C4)C[C@H]3C2)c(C(C)C)cc1C#N [Example 19.27, 4-[2-[(3aS,6aS)-5-[(5R)-4,5,6,7-tetrahydro-1H-benzotriazole-5-carbonyl]-1,3,3a,4,6,6a-hexahydropyrrolo[3,4-c]pyrrol-2-yl]-2-oxoethoxy]-2-methyl-5-propan-2-ylbenzonitrile]
2020 nM	O=C(c1ccc2[nH]nnc2c1)N1C[C@@H]2CN(C(=O)c3cc4ccc(Cl)cc4[nH]3)C[C@@H]2C1 [Example 15.04]
11 nM	CS(=O)(=O)c1cc(Cl)cc(COC(=O)N2C[C@@H]3CN(C(=O)c4ccc5[nH]nnc5c4)C[C@H]3C2)c1 [Example 4.03, (3aS,6aS)-5-(1H-benzotriazole-5-carbonyl)-hexahydro-pyrrolo[3,4-c]pyrrole-2-carboxylic acid 3-chloro-5-methanesulfonyl-benzyl ester]
11 nM	O=C(OCc1ccc(C(F)(F)F)cc1)N1C[C@@H]2CN(C(=O)c3ccc4[nH]nnc4c3)C[C@H]2C1 [Example 4.57, (3aS,6aS)-5-(1H-benzotriazole-5-carbonyl)-hexahydro-pyrrolo[3,4-c]pyrrole-2-carboxylic acid 4-trifluoromethyl-benzyl ester]
6 nM	O=C(OCc1ccc(OC(F)F)c(F)c1)N1C[C@@H]2CN(C(=O)c3ccc4[nH]nnc4c3)C[C@H]2C1 [Example 4.39, (3aS,6aS)-5-(1H-benzotriazole-5-carbonyl)-hexahydro-pyrrolo[3,4-c]pyrrole-2-carboxylic acid 4-difluoromethoxy-3-fluoro-benzyl ester]
7 nM	COc1ccc(OCC(=O)N2CC[C@@H]3CN(C(=O)c4ccc5[nH]nnc5c4)C[C@@H]3CC2)c(C(C)(C)C)c1 [Example 1.42, 1-[(3aS,8aR)-2-(1H-benzotriazole-5-carbonyl)-1,3,3a,4,5,7,8,8a-octahydropyrrolo[3,4-d]azepin-6-yl]-2-(2-tert-butyl-4-methoxyphenoxy)ethanone]
54 nM	CN(Cc1cnn[nH]1)C(=O)N1C[C@H]2CCN(C(=O)/C=C/c3ccc(OC(F)(F)F)c(F)c3)CC[C@H]2C1 [Example 15.61, (3aR,8aS)-N-((1H-1,2,3-triazol-5-yl)methyl)-6-((E)-3-(3-fluoro-4-(trifluoromethoxy)phenyl)-acryloyl)-N-methyloctahydro-pyrrolo[3,4-d]azepine-2(1H)-carboxamide]
7 nM	Cc1ccc(C(C)C)c(OCC(=O)N2C[C@@H]3CN(C(=O)c4ccc5[nH]nnc5c4)C[C@H]3C2)c1 [Example 19, 1-[(3aS,6aS)-5-(1H-benzotriazole-5-carbonyl)-hexahydro-pyrrolo[3,4-c]pyrrol-2-yl]-2-(2-isopropyl-5-methyl-phenoxy)-ethanone]
5 nM	CC(C)c1cc(C#N)ccc1COC(=O)N1C[C@@H]2CN(C(=O)[C@@H]3CCc4[nH]nnc4C3)C[C@H]2C1 [Example 4.46, (3aS,6aS)-5-((R)-4,5,6,7-tetrahydro-1H-benzotriazole-5-carbonyl)-hexahydro-pyrrolo[3,4-c]pyrrole-2-carboxylic acid 4-cyano-2-isopropyl-benzyl ester]
19 nM	O=C(/C=C/c1ccc(OC(F)F)cc1)N1C[C@H]2CCN(C(=O)c3ccc4[nH]nnc4c3)C[C@@H]2C1 (single isomer, unassigned) [Example 15.32]
21 nM	O=C(OCc1ccc(C(F)(F)F)cc1C1CC1)N1CC[C@@H]2CN(C(=O)c3ccc4[nH]nnc4c3)C[C@H]2C1 (relative stereo) [Example 1.31, trans-2-(1H-benzotriazole-5-carbonyl)-octahydro-pyrrolo[3,4-c]pyridine-5-carboxylic acid 2-cyclopropyl-4-trifluoromethyl-benzyl ester]
